The values that follow come from US20210070748A1, “INHIBITORS OF BRUTONS TYROSINE KINASE” (Pharmacyclics LLC, priority 2015, published 2021).

Holding throughout (format): biochemical
One experiment concerns the target T1, BTK-WT (Homo sapiens, UniProt Q06187).
T1 construct: purified from insect cells as a full-length construct containing an N-terminal 6X-His tag; His6 (N); made in house; host or cells: insect cells (baculovirus Sf21 in Method B)
The experiment can be described thus: Btk in vitro inhibitory activity (one of Method A TR-FRET, Method B electrophoretic mobility shift, Method C radiometric filter binding). As to conditions: D-compounds panel data; read-out: IC50 BTK-WT. Background: Mobility shift assays separate free from complexed probe on a gel.

For the next experiment, the target named is T2, ITK (Homo sapiens, UniProt Q08881).
T2 sequence (Q08881 1-620): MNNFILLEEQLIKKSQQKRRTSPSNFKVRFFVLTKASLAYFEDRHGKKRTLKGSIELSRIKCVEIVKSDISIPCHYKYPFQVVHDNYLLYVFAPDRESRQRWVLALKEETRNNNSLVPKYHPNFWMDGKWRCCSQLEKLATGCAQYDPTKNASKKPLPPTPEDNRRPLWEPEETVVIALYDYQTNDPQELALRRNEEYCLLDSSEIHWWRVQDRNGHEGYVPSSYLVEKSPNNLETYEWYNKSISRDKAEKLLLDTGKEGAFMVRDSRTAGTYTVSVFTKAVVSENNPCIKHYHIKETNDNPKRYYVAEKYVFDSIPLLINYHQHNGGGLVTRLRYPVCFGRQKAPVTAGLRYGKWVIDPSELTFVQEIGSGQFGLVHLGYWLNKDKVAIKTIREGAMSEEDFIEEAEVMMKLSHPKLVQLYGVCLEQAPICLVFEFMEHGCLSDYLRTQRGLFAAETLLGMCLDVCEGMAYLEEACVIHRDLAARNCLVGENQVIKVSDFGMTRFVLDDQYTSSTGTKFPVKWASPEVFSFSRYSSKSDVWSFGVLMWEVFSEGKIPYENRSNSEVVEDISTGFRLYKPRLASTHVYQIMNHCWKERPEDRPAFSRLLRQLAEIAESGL
The experiment can be described thus: Inhibition of a panel of kinases, in vitro HotSpot kinase assay: ITK. The conditions noted are these: D-compounds panel data; 1 μM ATP. How it is done: (§1) The degree of inhibition of a panel of kinases is determined using the in vitro HotSpot kinase assay (purified enzymes, ^33P-ATP, an appropriate substrate and 1 μM ATP).

In another experiment the target is EGFR (Homo sapiens, UniProt P00533). The experiment can be described thus: Inhibition of a panel of kinases, in vitro HotSpot kinase assay: EGFR. As to conditions: D-compounds panel data; 1 μM ATP. How it is done:
as §1

The target of another experiment is LCK (Homo sapiens, UniProt P06239). Briefly: Inhibition of a panel of kinases, in vitro HotSpot kinase assay: LCK. As to conditions: D-compounds panel data; 1 μM ATP; read-out: IC50 LCK.
LCK, sequence (P06239 whole entry): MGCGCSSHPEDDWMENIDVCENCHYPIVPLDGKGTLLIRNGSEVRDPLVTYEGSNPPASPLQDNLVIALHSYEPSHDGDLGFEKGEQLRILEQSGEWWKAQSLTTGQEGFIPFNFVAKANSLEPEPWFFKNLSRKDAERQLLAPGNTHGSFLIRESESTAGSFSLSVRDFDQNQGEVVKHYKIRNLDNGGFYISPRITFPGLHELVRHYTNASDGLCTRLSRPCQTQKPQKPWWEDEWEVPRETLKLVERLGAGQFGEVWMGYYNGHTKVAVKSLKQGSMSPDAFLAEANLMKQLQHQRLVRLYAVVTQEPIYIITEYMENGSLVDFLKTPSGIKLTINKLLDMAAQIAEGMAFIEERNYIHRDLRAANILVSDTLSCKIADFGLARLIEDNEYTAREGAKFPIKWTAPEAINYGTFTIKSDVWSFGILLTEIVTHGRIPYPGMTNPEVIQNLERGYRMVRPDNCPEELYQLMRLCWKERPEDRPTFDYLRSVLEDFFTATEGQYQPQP

T1 sequence (Q06187 whole entry): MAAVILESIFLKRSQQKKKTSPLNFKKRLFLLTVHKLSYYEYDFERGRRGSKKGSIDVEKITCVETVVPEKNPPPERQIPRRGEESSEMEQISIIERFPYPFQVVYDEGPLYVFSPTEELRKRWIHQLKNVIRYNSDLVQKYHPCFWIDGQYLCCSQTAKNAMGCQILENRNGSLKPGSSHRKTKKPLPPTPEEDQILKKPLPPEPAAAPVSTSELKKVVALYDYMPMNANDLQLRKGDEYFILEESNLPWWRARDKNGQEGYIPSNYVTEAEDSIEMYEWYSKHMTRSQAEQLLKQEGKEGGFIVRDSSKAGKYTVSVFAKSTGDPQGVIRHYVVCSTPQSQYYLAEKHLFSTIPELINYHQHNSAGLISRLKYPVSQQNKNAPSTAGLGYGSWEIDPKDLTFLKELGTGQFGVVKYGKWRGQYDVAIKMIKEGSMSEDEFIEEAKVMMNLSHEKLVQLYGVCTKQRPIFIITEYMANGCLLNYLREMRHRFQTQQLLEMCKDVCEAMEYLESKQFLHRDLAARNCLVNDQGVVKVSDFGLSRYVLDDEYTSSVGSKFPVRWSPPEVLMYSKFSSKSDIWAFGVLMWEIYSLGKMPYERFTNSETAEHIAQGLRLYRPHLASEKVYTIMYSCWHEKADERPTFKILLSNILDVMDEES
EGFR, sequence (P00533 25-1210): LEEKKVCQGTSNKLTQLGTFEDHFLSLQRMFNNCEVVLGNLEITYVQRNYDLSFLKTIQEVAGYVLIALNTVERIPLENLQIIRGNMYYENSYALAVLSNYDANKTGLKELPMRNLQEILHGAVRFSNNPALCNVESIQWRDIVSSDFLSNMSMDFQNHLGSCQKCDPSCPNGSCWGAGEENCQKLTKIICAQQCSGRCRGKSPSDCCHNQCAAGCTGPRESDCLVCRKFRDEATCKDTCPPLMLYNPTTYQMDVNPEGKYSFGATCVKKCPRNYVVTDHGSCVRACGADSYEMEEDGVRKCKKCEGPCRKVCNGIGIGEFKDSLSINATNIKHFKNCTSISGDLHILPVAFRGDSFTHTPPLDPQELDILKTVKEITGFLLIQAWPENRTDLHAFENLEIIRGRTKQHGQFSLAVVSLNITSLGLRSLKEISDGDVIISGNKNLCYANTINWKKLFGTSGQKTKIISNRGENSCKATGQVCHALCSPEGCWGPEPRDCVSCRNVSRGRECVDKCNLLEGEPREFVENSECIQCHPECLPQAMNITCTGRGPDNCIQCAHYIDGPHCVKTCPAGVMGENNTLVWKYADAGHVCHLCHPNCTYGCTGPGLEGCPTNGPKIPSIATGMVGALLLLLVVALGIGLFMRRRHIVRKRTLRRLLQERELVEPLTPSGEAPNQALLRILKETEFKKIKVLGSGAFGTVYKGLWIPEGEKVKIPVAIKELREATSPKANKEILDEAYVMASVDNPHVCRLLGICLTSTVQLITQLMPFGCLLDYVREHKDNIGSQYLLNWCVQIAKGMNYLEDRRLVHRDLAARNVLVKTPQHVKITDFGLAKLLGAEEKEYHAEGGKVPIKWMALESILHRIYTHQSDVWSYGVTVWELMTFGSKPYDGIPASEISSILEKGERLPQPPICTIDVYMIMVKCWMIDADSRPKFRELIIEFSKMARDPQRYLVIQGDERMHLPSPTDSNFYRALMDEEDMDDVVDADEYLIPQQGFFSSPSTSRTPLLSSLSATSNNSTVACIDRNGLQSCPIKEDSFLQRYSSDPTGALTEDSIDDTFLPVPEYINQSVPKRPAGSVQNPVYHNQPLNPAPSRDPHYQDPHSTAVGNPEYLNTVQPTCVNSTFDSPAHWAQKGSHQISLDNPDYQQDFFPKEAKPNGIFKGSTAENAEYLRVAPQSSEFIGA

For the compound `C[C@@H]1[C@H](NC(=O)c2ccc(C3CC3)cc2F)CCCN1c1cnc(C(N)=O)c(Nc2ccc(C3(C)CCN(C4CC4)CC3)cc2)n1` [Example D-138, 5-[(2R,3R)-3-(4-cyclopropyl-2-fluorobenzamido)-2-methylpiperidin-1-yl]-3-{[4-(1-cyclopropyl-4-methylpiperidin-4-yl)phenyl]amino}pyrazine-2-carboxamide], the concentration for half-maximal inhibition (IC50) (usually the concentration that gives 50% inhibition) on BTK-WT is at most 0.01 µM; against ITK it was 0.1 to 1 µM; against EGFR, 0.1 to 1 µM; at LCK, 0.01 to 0.1 µM.
In the case of `CN(C)c1ccc2c(=O)n([C@@H]3CCCN(c4cnc(C(N)=O)c(Nc5cnn(C)c5)n4)C3)ccc2c1` [Example D-155, 5-[(3R)-3-[6-(dimethylamino)-1-oxo-1,2-dihydroisoquinolin-2-yl]piperidin-1-yl]-3-[(1-methyl-1H-pyrazol-4-yl)amino]pyrazine-2-carboxamide], the IC50 on BTK-WT was at most 0.01 µM; against ITK it was 0.1 to 1 µM; at EGFR, 1 to 10 µM; at LCK, 0.1 to 1 µM.
In the case of `C[C@@H]1[C@H](NC(=O)c2ccc(C3CC3)cc2F)CCCN1c1cnc(C(N)=O)c(Nc2ccc(C3(C)CCN(C4CCC4)CC3)cc2)n1` [Example D-134, 3-{[4-(1-cyclobutyl-4-methylpiperidin-4-yl)phenyl]amino}-5-[(2R,3R)-3-(4-cyclopropyl-2-fluorobenzamido)-2-methylpiperidin-1-yl]pyrazine-2-carboxamide], the half-inhibitory concentration (IC50) on BTK-WT is at most 0.01 µM; against ITK it was 0.01 to 0.1 µM; on EGFR, 0.1 to 1 µM; at LCK it was 0.01 to 0.1 µM.
Turning to `C[C@@H]1[C@H](NC(=O)c2ccc(C3CC3)cc2)CCCN1c1cnc(C(N)=O)c(Nc2cnn(C)c2)n1` [Example D-135, 5-[(2R,3R)-3-(4-cyclopropylbenzamido)-2-methylpiperidin-1-yl]-3-[(1-methyl-1H-pyrazol-4-yl)amino]pyrazine-2-carboxamide], the IC50 is at most 0.01 µM at BTK-WT, 0.1 to 1 µM on ITK, 1 to 10 µM on EGFR and 0.1 to 1 µM at LCK.
Turning to `C[C@@H]1[C@H](NC(=O)c2ccc(C3CC3)cc2)CCCN1c1cnc(C(N)=O)c(Nc2ccc(OC3CCN(CC(F)(F)F)CC3)cc2)n1` [Example D-98, 5-[(2R,3R)-3-(4-cyclopropylbenzamido)-2-methylpiperidin-1-yl]-3-[(4-{[1-(2,2,2-trifluoroethyl)piperidin-4-yl]oxy}phenyl)amino]pyrazine-2-carboxamide], the IC50 at BTK-WT was at most 0.01 µM; on ITK, 1 to 10 µM; on EGFR, over 10 µM; on LCK it was over 10 µM.
On to `C[C@@H]1[C@H](NC(=O)c2ccc(C3CC3)cc2F)CCCN1c1cnc(C(N)=O)c(Nc2ccc(N3CCN(C)CC3)cn2)n1` [Example D-8, 5-[(2R,3R)-3-(4-cyclopropyl-2-fluorobenzamido)-2-methylpiperidin-1-yl]-3-{[5-(4-methylpiperazin-1-yl)pyridin-2-yl]amino}pyrazine-2-carboxamide], for which the 50% inhibitory concentration (IC50) on BTK-WT was 0.01 to 0.1 µM; against ITK it was over 10 µM; against EGFR it was over 10 µM; at LCK, over 10 µM.
As for `C[C@@H]1CC[C@H](NC(=O)N(C)C)CN1c1cnc(C(N)=O)c(Nc2cnn(C)c2)n1` [Example D-151, 5-[(2R,5S)-5-[(dimethylcarbamoyl)amino]-2-methylpiperidin-1-yl]-3-[(1-methyl-1H-pyrazol-4-yl)amino]pyrazine-2-carboxamide], the IC50 is 0.01 to 0.1 µM on BTK-WT, 1 to 10 µM on ITK, 1 to 10 µM at EGFR and 0.01 to 0.1 µM at LCK.
As to `C[C@@H]1[C@H](NC(=O)c2ccc(C3CC3)cc2)CCCN1c1cnc(C(N)=O)c(Nc2ccc(OC3CCCN(C)C3)cc2)n1` (stereo partly drawn) [Example D-105, 5-[(2R,3R)-3-(4-cyclopropylbenzamido)-2-methylpiperidin-1-yl]-3-({4-[(1-methylpiperidin-3-yl)oxy]phenyl}amino)pyrazine-2-carboxamide], the half-maximal inhibitory concentration (IC50) on BTK-WT was at most 0.01 µM; against ITK, 0.01 to 0.1 µM; at EGFR, 0.1 to 1 µM; on LCK, 0.01 to 0.1 µM.
On to `Cn1cc(Nc2nc(N3CCCC4(C3)CN(c3ccc(C5CC5)cc3)C(=O)O4)cnc2C(N)=O)cn1` [Example D-147, 5-[3-(4-cyclopropylphenyl)-2-oxo-1-oxa-3,7-diazaspiro[4.5]decan-7-yl]-3-[(1-methyl-1H-pyrazol-4-yl)amino]pyrazine-2-carboxamide], for which the half-inhibitory concentration (IC50) on BTK-WT was 0.01 to 0.1 µM; on ITK, over 10 µM; against EGFR it was 1 to 10 µM; on LCK, 0.1 to 1 µM.
Taken in the same sequence, the figures for `C[C@@H]1[C@H](NC(=O)c2ccc(OC(F)(F)F)cc2)CCCN1c1cnc(C(N)=O)c(Nc2cnn(C)c2)n1` [Example D-95, 3-[(1-methyl-1H-pyrazol-4-yl)amino]-5-[(2R,3R)-2-methyl-3-[4-(trifluoromethoxy)benzamido]piperidin-1-yl]pyrazine-2-carboxamide] were at most 0.01 µM, 0.1 to 1 µM, 0.1 to 1 µM and 0.1 to 1 µM.
Consider `C[C@H]1CC[C@@H](NC(=O)c2ccc(C(C)(C)O)cc2)CN1c1nnc(C(N)=O)c(Nc2cnn(C)c2)n1` [Example D-157, 3-[(2S,5R)-5-[4-(2-hydroxypropan-2-yl)benzamido]-2-methylpiperidin-1-yl]-5-[(1-methyl-1H-pyrazol-4-yl)amino]-1,2,4-triazine-6-carboxamide], for which the 50% inhibitory concentration (IC50) at BTK-WT is at most 0.01 µM; on ITK it was 0.01 to 0.1 µM; on EGFR it was 1 to 10 µM; on LCK, 0.01 to 0.1 µM.
With `C[C@@H]1[C@H](NC(=O)c2ccc(C3CC3)cc2F)CCCN1c1cnc(C(N)=O)c(Nc2ccc(S(=O)(=O)N3CCCC3)cc2)n1` [Example D-139, 5-[(2R,3R)-3-(4-cyclopropyl-2-fluorobenzamido)-2-methylpiperidin-1-yl]-3-{[4-(pyrrolidine-1-sulfonyl)phenyl]amino}pyrazine-2-carboxamide], the IC50 at BTK-WT was at most 0.01 µM; against ITK, over 10 µM; against EGFR, 1 to 10 µM; at LCK it was over 10 µM.
Turning to `C[C@@H]1CC[C@@H](NC(=O)c2ccc(C3CC3)cc2)CN1c1cnc(C(N)=O)c(Nc2cnn(C)c2)n1` [Example D-143, 5-[(2R,5R)-5-(4-cyclopropylbenzamido)-2-methylpiperidin-1-yl]-3-[(1-methyl-1H-pyrazol-4-yl)amino]pyrazine-2-carboxamide], the half-maximal inhibitory concentration (IC50) on BTK-WT is 0.01 to 0.1 µM; against ITK, over 10 µM; against EGFR it was 1 to 10 µM; at LCK, 1 to 10 µM.
Turning to `C[C@H]1CC[C@@H](NC(=O)c2ccc(C3CC3)cc2)CN1c1cnc(C(N)=O)c(Nc2cnn(C)c2)n1` [Example D-142, 5-[(2S,5R)-5-(4-cyclopropylbenzamido)-2-methylpiperidin-1-yl]-3-[(1-methyl-1H-pyrazol-4-yl)amino]pyrazine-2-carboxamide], the IC50 at BTK-WT was at most 0.01 µM; at ITK it was 1 to 10 µM; against EGFR, 1 to 10 µM; at LCK it was 0.01 to 0.1 µM.
`C[C@H]1CC[C@H](NC(=O)c2ccc(C3CC3)cc2)CN1c1cnc(C(N)=O)c(Nc2cnn(C)c2)n1` [Example D-144, 5-[(2S,5S)-5-(4-cyclopropylbenzamido)-2-methylpiperidin-1-yl]-3-[(1-methyl-1H-pyrazol-4-yl)amino]pyrazine-2-carboxamide]: the concentration for half-maximal inhibition (IC50) at BTK-WT is 0.1 to 1 µM; against ITK, over 10 µM; at EGFR, over 10 µM; at LCK, 1 to 10 µM.
`C[C@@H]1[C@H](NC(=O)c2ccc(C3CC3)cc2F)CCCN1c1cnc(C(N)=O)c(Nc2ccc(N3CCN(C)CC3=O)cc2)n1` [Example D-10, 5-[(2R,3R)-3-(4-cyclopropyl-2-fluorobenzamido)-2-methylpiperidin-1-yl]-3-{[4-(4-methyl-2-oxopiperazin-1-yl)phenyl]amino}pyrazine-2-carboxamide]: the IC50 was at most 0.01 µM on BTK-WT, 0.1 to 1 µM against ITK, 0.1 to 1 µM at EGFR and 0.1 to 1 µM on LCK.
For the compound `C[C@@H]1[C@H](NC(=O)N(C)C)CCCN1c1cnc(C(N)=O)c(Nc2ccc(N3CCN(C)CC3)cc2)c1` [Example D-127, 5-[(2R,3R)-3-[(dimethylcarbamoyl)amino]-2-methylpiperidin-1-yl]-3-{[4-(4-methylpiperazin-1-yl)phenyl]amino}pyridine-2-carboxamide], the IC50 is 0.1 to 1 µM on BTK-WT, 1 to 10 µM against ITK, over 10 µM at EGFR and 1 to 10 µM on LCK.
